From patent US10106565B2 (priority 2008, dated 2018) come the findings set out here.

For one test, the system named is CD4 T cells. In words: Allogenic mixed leucocyte reaction (MLR) with activated monocytes. The class given is cell-based, human. The conditions noted are these: 20 μM, 24 hours activation; PBL:monocyte ratios 4:1 to 100:1; vs alt- and class-monocytes. The method, then: For the functional experiments, freshly purified monocytes are cultured in 6-well plates. The cells are stimulated for 24 hours (immunophenotyping by flow cytometry analyses, MLR) or 96 hours (CD206 detection) with different stimuli or remain untreated (control). Dendrimer-activated monocytes (da-monocytes) are obtained with 20 μM of the dendrimer Gc1, alternatively-activated monocytes (alt-monocytes) with 10 U/mL recombinant human IL4 (Peprotech). The classical activation of monocytes is obtained by priming the cells over night (18 hours) with 100 U/mL of human recombinant IFN-γ (R&D Systems) and, after a washing step in PBS, by stimulation with 10 ng/mL LPS from E. coli 011/B4 strain (InvivoGen) for the remaining 6 hours or […].
MLR are performed in 96-well round bottom plates in a total volume of 200 μL in complete RPMI 1640 medium. […] The proliferation of the CD4 T cells is analyzed by measuring the cytoplasmic dilution of CFSE (as described in 5.1. Methods). […] Then, CFSE dilution is analyzed by flow cytometry to measure the proliferation of alloantigen-induced CD4 T cells. After gating for CD4 positive cells CFSE fluorescence intensities are analyzed, and the percentage of CD4 T cells which have proliferated during the MLR is taken into account. […] The overall differences are evaluated by analysis of variance test (ANOVA) with Sigma Stat software (Systat Software).

Test [1] relates to human monocytes. In words: Quantitative RT-PCR of mRNA expression in dendrimer-activated monocytes. The class given is cell-based. The conditions noted are these: 20 μM, 6 hours; da-monocytes vs untreated monocytes, 6 donors. The method, then: (§1) For genechip analysis, 10×10^6 monocytes from 3 donors (and from 3 more donors for quantitative PCR) are cultured in 25 cm^2 dishes. They are stimulated with 20 μM of dendrimer for 6 hours or remain untreated (control cells).
Total RNA are purified as described above, and 5 μg are used to synthesize single-strand cDNA using M-MLV reverse transcriptase RNase H Minus (Promega), according to the manufacturer's instructions. Quantitative RT-PCR is then performed using the Platinium SYBR Green qPCR SuperMix UDG (Invitrogen) with forward and reverse primers at a final concentration of 300 nM. The primers are designed using Primer Express software from mRNA sequences submitted to Ensembl data base, and are listed in FIG. 7. Quantification of the different mRNA is performed on a 7000 Sequence Detection System (Applied Biosystems). PCR amplification begins with 1 cycle of 50° C. for 2 minutes and 95° C. for 10 minutes, followed with 40 cycles of denaturation at 95° C. for 15 seconds and annealing/extension at 60° C. for 60 seconds. All experiments are performed in duplicate. For each donor, the relative expression is calculated as 2^−ΔΔCt where ΔΔCt is the difference between ΔCt of the sample and the ΔCt of the reference consisting of the control monocytes. ΔCt is the difference between the Ct of the target gene and the GAPDH gene. For statistical analysis, a one-tailed paired t test is performed comparing the ΔCt values for the da-monocytes and the corresponding control monocytes with Sigma Stat software (Systat Software).

Test [2] deals with human monocytes. In words: Affymetrix genechip transcriptional profile of monocytes activated by dendrimer. The class given is cell-based. Particulars: 20 μM, 6 hours, vs untreated monocytes. The method, then: Peripheral Blood Mononuclear Cells (PBMC) from adult healthy volunteers are prepared as described in example 1.
Monocytes are then purified by positive selection using microbeads conjugated with anti-CD14 mAb, according to the manufacturer's instructions (Miltenyi Biotec). The cells obtained after the purification are >95% pure. The CD14 negative fraction is collected as Peripheral Blood Lymphocytes (PBL).
Monocytes are cultured at a final concentration of 1×10^6 cells/mL in complete RPMI 1640 medium (as described in example 1.1).
as §1
Total RNA are extracted from 10×10^6 monocytes using TRIzol™ Reagent (Invitrogen), according to the manufacturer's instructions. The quality and integrity of the RNA obtained are assessed by using an Agilent 2100 Bioanalyser (Agilent Technologies) after a denaturating step at 70° C. for 2 minutes. cRNA are prepared according to one-Cycle Target Labelling protocol (Affymetrix) starting from 1 μg of total RNA.
cRNA are fragmented and hybridized to Affymetrix HG-U133 plus 2.0 arrays. […] Monocytes from 3 donors are analyzed after 6 hour incubation in the presence or absence of the dendrimer Gc1. […]

For the compound `CN(/N=C/c1ccc(OP2(Oc3ccc(/C=N/N(C)P(=S)(Oc4ccc(CCN(CP(=O)(O)O)CP(=O)(O)O)cc4)Oc4ccc(CCN(CP(=O)(O)O)CP(=O)(O)O)cc4)cc3)=NP(Oc3ccc(/C=N/N(C)P(=S)(Oc4ccc(CCN(CP(=O)(O)O)CP(=O)(O)O)cc4)Oc4ccc(CCN(CP(=O)(O)O)CP(=O)(O)O)cc4)cc3)(Oc3ccc(/C=N/N(C)P(=S)(Oc4ccc(CCN(CP(=O)(O)O)CP(=O)(O)O)cc4)Oc4ccc(CCN(CP(=O)(O)O)CP(=O)(O)O)cc4)cc3)=NP(Oc3ccc(/C=N/N(C)P(=S)(Oc4ccc(CCN(CP(=O)(O)O)CP(=O)(O)O)cc4)Oc4ccc(CCN(CP(=O)(O)O)CP(=O)(O)O)cc4)cc3)(c3ccc(/C=N/N(C)P(=S)(Oc4ccc(CCN(CP(=O)(O)O)CP(=O)(O)O)cc4)Oc4ccc(CCN(CP(=O)(O)O)CP(=O)(O)O)cc4)cc3)=N2)cc1)P(=S)(Oc1ccc(CCN(CP(=O)(O)O)CP(=O)(O)O)cc1)Oc1ccc(CCN(CP(=O)(O)O)CP(=O)(O)O)cc1` (stereo not drawn) [Gc1], in the test on CD4 T cells, the “MLR activation (divided CD4+ T lymphocytes) by da-monocytes” value is recorded as “lowest activating effect on MLR”. In the test on human monocytes [1], the “mRNA expression of CCL5” value is “significantly under-expressed”; the “mRNA expression of alternative activation genes MRC1, IL1 RN, IL10, CCL18 and CD23” value is on record as “significantly up-regulated”; the “mRNA expression of classical activation genes IL1β, IL6 and IL12” value was “not significantly modified”. For the same compound, the “number of genes under-expressed by da-monocytes” value with human monocytes [2] (fold change ≤−2.0 in at least two of three donors) stood at 62. In addition, the “number of genes over-expressed by da-monocytes” value in the test on human monocytes [2] (fold change ≥2.0 in at least two of three donors) came out at 78.
